{"source": "patent US10702512B2", "about": "“Treatment of debilitating fatigue” (A. CARLSSON RESEARCH AB, priority 2015, dated 2020)", "key": {"water solubility": {"assay": "water solubility", "type": "physicochemical", "settings": "hydrochloride, white powder", "experimental": "The investigated substance is the S enantiomer with the chemical name (S)-3-[3-(methylsulfonyl) phenyl]-1-propylpiperidine hydrochloride, referred herein to as OSU6162. The substance is a white powder with a melting point of 177-182° C. and water solubility of >2000 mg/ml."}, "ME/CFS patients [1]": {"tested_on": "ME/CFS patients", "assay": "Beck Depression Inventory (BDI) total score, phase II clinical study", "type": "in vivo, human", "settings": "2-way ANOVA, OSU6162 vs placebo", "experimental": "Circular coated tablets for oral use of 15 mg and matching placebos was used. The tablets were administered by research nurses at the study site. The tablets were circular coated tablets for oral use containing 15 mg OSU6162. Matching placebos were used. The start dose was 15 mg OSU6162 twice daily (before breakfast and lunch) during 1 week with dose increase up to 30 mg twice daily during the following week. Additionally, the clinical effect was evaluated using the FF-scale, The Beck/BDI scale, VAS pain scale and with neuropsychological tests. To examine the effect of treatment and concomitant use of an antidepressant, antidepressant was included as a fixed factor in the analyses. […] Outcome targets FF, MFS and BDI were measured."}, "[2]": {"assay": "OSU6162 concentration in blood plasma", "type": "in vivo, human", "experimental": "Next, the concentration of OSU6162 in blood plasma was measured and analyzed for correlations with time and changes in FF, MFS and BDI score.\nPlasma concentrations of OSU6162 were measured in 30 patients who received placebo and in 31 patients who received OSU6162. The blood sample was drawn in the morning after the tablet was taken—the time of the tablet intake was noted and reported to the clinic by the patient. The blood sample was taken at minimum 65 and at maximum 180 minutes after tablet intake. The mean time was 123 minutes and the standard deviation 33 minutes.\nIn order to analyze the relationship between the treatment outcome and the concentration of OSU6162 in blood plasma, OSU6162 concentrations in patients measured after week 2 were plotted against change in FF, MFS and BDI score (FIGS. 6, 7 and 8)."}, "ME/CFS patients [3]": {"tested_on": "ME/CFS patients", "assay": "Coding test (WAIS subtest)", "type": "in vivo, human", "parameters": "key to Coding test score, min / Coding test score, max / Coding test, Difference, increased mean / Coding test score, mean / Coding test score, median: number of symbols correctly copied within 90 seconds", "experimental": "Next, patients were evaluated using a neuropsychological test. 61 patients were included in a neuropsychological examination. All subjects were tested once in connection with the randomization with the BNIS neuropsychological screening test. 20-30 minutes was required for this test. With the purpose of measuring the cognitive effects of the OSU6162 treatment six more tests were distributed at a first occasion before the initiation of treatment and at a second occasion after the treatment was completed. These tests required 20 minutes each. All tests were performed by a neuropsychologist. The Coding test is a subtest from WAIS, Wechsler Adult Intelligence Scale and measures the processing speed. The performance reflects abilities such as visual-motor coordination, motor and mental speed and working memory. It requires the subject to copy, as quickly and correctly as possible, nine symbols, one by one in 93 boxes, placed below each number. The symbol connected with the numbers is available. The score is the number of symbols registered within 90 seconds."}, "ME/CFS patients [4]": {"tested_on": "ME/CFS patients", "assay": "Trail making test A (TMT A)", "type": "in vivo, human", "experimental": "Next, patients were evaluated using a neuropsychological test. 61 patients were included in a neuropsychological examination. All subjects were tested once in connection with the randomization with the BNIS neuropsychological screening test. 20-30 minutes was required for this test. With the purpose of measuring the cognitive effects of the OSU6162 treatment six more tests were distributed at a first occasion before the initiation of treatment and at a second occasion after the treatment was completed. These tests required 20 minutes each. All tests were performed by a neuropsychologist. Trail making test A (TMT A) requires the subject to draw a line as quickly as possible connecting a series of numbers. It is a time-based measure of attention, where time and quality are noted and requires motor effectiveness, visual scanning, speed and flexibility. The test has a high sensitivity for brain dysfunction."}, "ME/CFS patients [5]": {"tested_on": "ME/CFS patients", "assay": "Trail making test B (TMT B)", "type": "in vivo, human", "experimental": "Next, patients were evaluated using a neuropsychological test. 61 patients were included in a neuropsychological examination. All subjects were tested once in connection with the randomization with the BNIS neuropsychological screening test. 20-30 minutes was required for this test. With the purpose of measuring the cognitive effects of the OSU6162 treatment six more tests were distributed at a first occasion before the initiation of treatment and at a second occasion after the treatment was completed. These tests required 20 minutes each. All tests were performed by a neuropsychologist. […] The subject follows a mental track and the test requires the ability to handle more than one stimulus at a time, as well as flexibility in shifting between different activities. It has a high sensitivity for brain dysfunction and is regarded to be related to prefrontal functioning."}, "ME/CFS patients [6]": {"tested_on": "ME/CFS patients", "assay": "neuropsychological tests of cognitive functioning, overall", "type": "in vivo, human", "settings": "all neuropsychological tests employed; no significant difference vs placebo"}}}
{"molecule": "CCCN1CCC[C@@H](c2cccc(S(C)(=O)=O)c2)C1.Cl", "note": "[OSU6162, (3S)-3-[3-(methylsulfonyl)-phenyl]-1-propylpiperidine hydrochloride]", "values": [{"measurement": "solubility", "setting": "water solubility", "value": "> 2000", "unit": "mg/mL"}, {"measurement": "BDI main effect of treatment", "setting": "ME/CFS patients [1]", "value": "None"}, {"measurement": "correlation between plasma concentration and time between tablet intake and blood sampling", "setting": "[2]; Spearman rank correlation, sampling 65-180 minutes after tablet intake", "value": "No significant correlation"}, {"measurement": "therapeutic optimum plasma concentration", "setting": "[2]; plasma after week 2 plotted against change in FF, MFS and BDI score, above 0.7 μM no further improvement", "value": "0.3 to 0.7", "unit": "µM"}, {"measurement": "Coding test score, max", "setting": "ME/CFS patients [3]; after treatment", "value": 93}, {"measurement": "Coding test score, mean", "setting": "ME/CFS patients [3]; after treatment", "value": 56.29}, {"measurement": "Coding test score, median", "setting": "ME/CFS patients [3]; after treatment", "value": 56}, {"measurement": "Coding test score, min", "setting": "ME/CFS patients [3]; after treatment", "value": 37}, {"measurement": "Coding test, Difference, increased mean", "setting": "ME/CFS patients [3]; after vs before treatment", "value": 5}, {"measurement": "Coding test difference between OSU6162 and placebo groups", "setting": "ME/CFS patients [3]; before and after treatment", "value": "No significant differences"}, {"measurement": "Coding test score, max", "setting": "ME/CFS patients [3]; before treatment", "value": 80}, {"measurement": "Coding test score, mean", "setting": "ME/CFS patients [3]; before treatment", "value": 51.42}, {"measurement": "Coding test score, median", "setting": "ME/CFS patients [3]; before treatment", "value": 51}, {"measurement": "Coding test score, min", "setting": "ME/CFS patients [3]; before treatment", "value": 31}, {"measurement": "TMT A, max", "setting": "ME/CFS patients [4]; after treatment", "value": 48, "unit": "s"}, {"measurement": "TMT A, mean", "setting": "ME/CFS patients [4]; after treatment", "value": 28.5}, {"measurement": "TMT A, median", "setting": "ME/CFS patients [4]; after treatment", "value": 29}, {"measurement": "TMT A, min", "setting": "ME/CFS patients [4]; after treatment", "value": 15}, {"measurement": "TMT A difference between OSU6162 and placebo groups", "setting": "ME/CFS patients [4]; before and after treatment", "value": "No significant differences"}, {"measurement": "TMT A, max", "setting": "ME/CFS patients [4]; before treatment", "value": 57, "unit": "s"}, {"measurement": "TMT A, mean", "setting": "ME/CFS patients [4]; before treatment", "value": 33.4}, {"measurement": "TMT A, median", "setting": "ME/CFS patients [4]; before treatment", "value": 32}, {"measurement": "TMT A, min", "setting": "ME/CFS patients [4]; before treatment", "value": 16}, {"measurement": "TMT A, Difference", "setting": "ME/CFS patients [4]; before vs after treatment", "value": 10}, {"measurement": "TMT B, max", "setting": "ME/CFS patients [5]; after treatment", "value": 145, "unit": "s"}, {"measurement": "TMT B, mean", "setting": "ME/CFS patients [5]; after treatment", "value": 61.2}, {"measurement": "TMT B, median", "setting": "ME/CFS patients [5]; after treatment", "value": 29}, {"measurement": "TMT B, min", "setting": "ME/CFS patients [5]; after treatment", "value": 31}, {"measurement": "TMT B difference between OSU6162 and placebo groups", "setting": "ME/CFS patients [5]; before and after treatment", "value": "No significant differences"}, {"measurement": "TMT B, max", "setting": "ME/CFS patients [5]; before treatment", "value": 134, "unit": "s"}, {"measurement": "TMT B, mean", "setting": "ME/CFS patients [5]; before treatment", "value": 71.7}, {"measurement": "TMT B, median", "setting": "ME/CFS patients [5]; before treatment", "value": 32}, {"measurement": "TMT B, min", "setting": "ME/CFS patients [5]; before treatment", "value": 44}, {"measurement": "TMT B, Difference", "setting": "ME/CFS patients [5]; before vs after treatment", "value": 10}, {"measurement": "effect of treatment on cognitive abilities", "setting": "ME/CFS patients [6]", "value": "does not affect the cognitive abilities"}]}
